Test results as given in PMC10994248 (The Oncologist, 2024).

Assay: Phase I safety and tolerability (TEAEs, DLTs, MTD, DRDE) in patients with advanced solid tumors
Format: in vivo, human
Settings: for DLT: Hypertension / DLT: Palmar-plantar erythrodysesthesia syndrome / DLT: Skin and subcutaneous tissue disorders / DLT: Vascular disorders / Subjects who had a dose-limiting toxicity: dose-determining set
Procedure: This 2-part, open-label, phase I study was conducted at the MD Anderson Cancer Center in Texas, USA and the Cancer Hospital Chinese Academy of Medical Sciences in Beijing, China. […] This was followed by a dose-expansion phase, the primary objective of which was to confirm the safety and tolerability of tinengotinib at the DRDE. Secondary objectives were to characterize the pharmacokinetics and preliminary efficacy of tinengotinib.
Dose escalation was guided by an adaptive Bayesian logistic regression model using the Escalation with Overdose Control principle.[6],[7] Study data (including DLTs, grade 2 adverse events during cycle 1, and pharmacokinetic data) were reviewed by the sponsor and trial investigators at each dose level and used to guide dose-escalation decisions. MTD was based on the Bayesian model, but with consideration given to available safety and tolerability data. DRDE was based on an evaluation of all available data (safety, clinical activity, and pharmacokinetics).
After determination of the DRDE, the dose-expansion phase was opened to further characterize safety and pharmacokinetics, and to assess preliminary efficacy.
Routine safety assessments of adverse events, laboratory tests (hematology, coagulation, biochemistry, and urinalysis), vital signs, and 12-lead electrocardiograms were performed. Adverse events were graded according to the National Cancer Institute Common Terminology Criteria for Adverse Events (CTCAE), version 5.0.

## tinengotinib
1 mg (n=1)
  DLT: Hypertension: 0 No. (%)
  DLT: Palmar-plantar erythrodysesthesia syndrome: 0 No. (%)
  DLT: Skin and subcutaneous tissue disorders: 0 No. (%)
  DLT: Vascular disorders: 0 No. (%)
  Subjects who had a dose-limiting toxicity: 0 No. (%)
3 mg (n=1)
  DLT: Hypertension: 0 No. (%)
  DLT: Palmar-plantar erythrodysesthesia syndrome: 0 No. (%)
  DLT: Skin and subcutaneous tissue disorders: 0 No. (%)
  DLT: Vascular disorders: 0 No. (%)
  Subjects who had a dose-limiting toxicity: 0 No. (%)
5 mg (n=4)
  DLT: Hypertension: 0 No. (%)
  DLT: Palmar-plantar erythrodysesthesia syndrome: 0 No. (%)
  DLT: Skin and subcutaneous tissue disorders: 0 No. (%)
  DLT: Vascular disorders: 0 No. (%)
  Subjects who had a dose-limiting toxicity: 0 No. (%)
8 mg (n=9)
  DLT: Hypertension: 0 No. (%)
  DLT: Palmar-plantar erythrodysesthesia syndrome: 1 (11.1) No. (%)
  DLT: Skin and subcutaneous tissue disorders: 1 (11.1) No. (%)
  DLT: Vascular disorders: 0 No. (%)
  Subjects who had a dose-limiting toxicity: 1 (11.1) No. (%)
10 mg (n=3)
  DLT: Hypertension: 0 No. (%)
  DLT: Palmar-plantar erythrodysesthesia syndrome: 0 No. (%)
  DLT: Skin and subcutaneous tissue disorders: 0 No. (%)
  DLT: Vascular disorders: 0 No. (%)
  Subjects who had a dose-limiting toxicity: 0 No. (%)
12 mg (n=9)
  DLT: Hypertension: 0 No. (%)
  DLT: Palmar-plantar erythrodysesthesia syndrome: 0 No. (%)
  DLT: Skin and subcutaneous tissue disorders: 0 No. (%)
  DLT: Vascular disorders: 0 No. (%)
  Subjects who had a dose-limiting toxicity: 0 No. (%)
12 mg dose
  DLTs during the dose-expansion phase: no other DLTs
15 mg (n=5)
  DLT: Hypertension: 2 (40.0) No. (%)
  DLT: Palmar-plantar erythrodysesthesia syndrome: 0 No. (%)
  DLT: Skin and subcutaneous tissue disorders: 0 No. (%)
  DLT: Vascular disorders: 2 (40.0) No. (%)
  Subjects who had a dose-limiting toxicity: 2 (40.0) No. (%)
48 patients
  Dose modifications (dose adjustment or temporary interruption) because of drug-related TEAEs: 52.1%
  Dose modifications because of drug-related hypertension: 22.9%
  Drug-related grade 3 diarrhea: 2.1%
  Drug-related grade 3 hypertension: 27.1%
  Drug-related grade 3 nausea: 2.1%
  Drug-related grade 3 palmar-plantar erythrodysesthesia syndrome: 2.1%
  Drug-related grade 3 stomatitis: 4.2%
  Drug-related grade 4 or 5 TEAEs: No drug-related grade 4 or 5 TEAEs were reported
  Patients with drug-related grade 3 TEAEs: 43.8%
  Patients with drug-related serious adverse events: 14.6%
48 patients, all doses
  Patients with study drug-related TEAEs: 85.4%
48 patients, any grade
  Drug-related TEAE diarrhea: 33.3%
  Drug-related TEAE hypertension: 50.0%
  Drug-related TEAE nausea: 22.9%
  Drug-related TEAE palmar-plantar erythrodysesthesia syndrome: 29.2%
  Drug-related TEAE stomatitis: 29.2%
  Drug-related TEAE vomiting: 20.8%
Bayesian model, doses 1-15 mg once daily
  Maximum tolerated dose (MTD): not reached
Total (n=32)
  DLT: Hypertension: 2 (6.3) No. (%)
  DLT: Palmar-plantar erythrodysesthesia syndrome: 1 (3.1) No. (%)
  DLT: Skin and subcutaneous tissue disorders: 1 (3.1) No. (%)
  DLT: Vascular disorders: 2 (6.3) No. (%)
  Subjects who had a dose-limiting toxicity: 3 (9.4) No. (%)
All doses
  Risk of grade ≥3 hypertension predicted by exposure-response model: < 25%
Combined 12 mg (n=20)
  Patients with AE: 20 (100) n (%)
  Patients with TEAE: 20 (100) n (%)
  Patients with TEAE leading to death: 0 n (%)
  Patients with TEAE leading to dose adjustment/temporary interruption: 15 (75.0) n (%)
  Patients with TEAE leading to study drug permanent discontinuation: 3 (15.0) n (%)
  Patients with grade ≥3 TEAE: 14 (70.0) n (%)
  Patients with study drug-related TEAE: 19 (95.0) n (%)
  Patients with study drug-related TEAE leading to dose adjustment/temporary interruption: 13 (65.0) n (%)
  Patients with study drug-related TEAE leading to study drug permanent discontinuation: 1 (5.0) n (%)
  Patients with study drug-related grade ≥3 TEAE: 11 (55.0) n (%)
  Patients with study drug-related treatment-emergent SAE: 3 (15.0) n (%)
  Patients with treatment-emergent SAE: 9 (45.0) n (%)
Dose escalation 1 mg (n=1)
  Patients with AE: 1 (100) n (%)
  Patients with TEAE: 1 (100) n (%)
  Patients with TEAE leading to death: 0 n (%)
  Patients with TEAE leading to dose adjustment/temporary interruption: 0 n (%)
  Patients with TEAE leading to study drug permanent discontinuation: 0 n (%)
  Patients with grade ≥3 TEAE: 0 n (%)
  Patients with study drug-related TEAE: 0 n (%)
  Patients with study drug-related TEAE leading to dose adjustment/temporary interruption: 0 n (%)
  Patients with study drug-related TEAE leading to study drug permanent discontinuation: 0 n (%)
  Patients with study drug-related grade ≥3 TEAE: 0 n (%)
  Patients with study drug-related treatment-emergent SAE: 0 n (%)
  Patients with treatment-emergent SAE: 0 n (%)
Dose escalation 3 mg (n=1)
  Patients with AE: 1 (100) n (%)
  Patients with TEAE: 1 (100) n (%)
  Patients with TEAE leading to death: 0 n (%)
  Patients with TEAE leading to dose adjustment/temporary interruption: 0 n (%)
  Patients with TEAE leading to study drug permanent discontinuation: 0 n (%)
  Patients with grade ≥3 TEAE: 0 n (%)
  Patients with study drug-related TEAE: 0 n (%)
  Patients with study drug-related TEAE leading to dose adjustment/temporary interruption: 0 n (%)
  Patients with study drug-related TEAE leading to study drug permanent discontinuation: 0 n (%)
  Patients with study drug-related grade ≥3 TEAE: 0 n (%)
  Patients with study drug-related treatment-emergent SAE: 0 n (%)
  Patients with treatment-emergent SAE: 0 n (%)
Dose escalation 5 mg (n=4)
  Patients with AE: 4 (100) n (%)
  Patients with TEAE: 4 (100) n (%)
  Patients with TEAE leading to death: 0 n (%)
  Patients with TEAE leading to dose adjustment/temporary interruption: 2 (50.0) n (%)
  Patients with TEAE leading to study drug permanent discontinuation: 0 n (%)
  Patients with grade ≥3 TEAE: 1 (25.0) n (%)
  Patients with study drug-related TEAE: 3 (75.0) n (%)
  Patients with study drug-related TEAE leading to dose adjustment/temporary interruption: 1 (25.0) n (%)
  Patients with study drug-related TEAE leading to study drug permanent discontinuation: 0 n (%)
  Patients with study drug-related grade ≥3 TEAE: 1 (25.0) n (%)
  Patients with study drug-related treatment-emergent SAE: 0 n (%)
  Patients with treatment-emergent SAE: 0 n (%)
Dose escalation 8 mg (n=10)
  Patients with AE: 9 (90.0) n (%)
  Patients with TEAE: 9 (90.0) n (%)
  Patients with TEAE leading to death: 0 n (%)
  Patients with TEAE leading to dose adjustment/temporary interruption: 5 (50.0) n (%)
  Patients with TEAE leading to study drug permanent discontinuation: 2 (20.0) n (%)
  Patients with grade ≥3 TEAE: 6 (60.0) n (%)
  Patients with study drug-related TEAE: 8 (80.0) n (%)
  Patients with study drug-related TEAE leading to dose adjustment/temporary interruption: 5 (50.0) n (%)
  Patients with study drug-related TEAE leading to study drug permanent discontinuation: 1 (10.0) n (%)
  Patients with study drug-related grade ≥3 TEAE: 4 (40.0) n (%)
  Patients with study drug-related treatment-emergent SAE: 3 (30.0) n (%)
  Patients with treatment-emergent SAE: 5 (50.0) n (%)
Dose escalation 10 mg (n=6)
  Patients with AE: 6 (100) n (%)
  Patients with TEAE: 6 (100) n (%)
  Patients with TEAE leading to death: 0 n (%)
  Patients with TEAE leading to dose adjustment/temporary interruption: 5 (83.3) n (%)
  Patients with TEAE leading to study drug permanent discontinuation: 4 (66.7) n (%)
  Patients with grade ≥3 TEAE: 5 (83.3) n (%)
  Patients with study drug-related TEAE: 6 (100) n (%)
  Patients with study drug-related TEAE leading to dose adjustment/temporary interruption: 3 (50.0) n (%)
  Patients with study drug-related TEAE leading to study drug permanent discontinuation: 4 (66.7) n (%)
  Patients with study drug-related grade ≥3 TEAE: 2 (33.3) n (%)
  Patients with study drug-related treatment-emergent SAE: 1 (16.7) n (%)
  Patients with treatment-emergent SAE: 4 (66.7) n (%)
Dose escalation 12 mg (n=12)
  Patients with AE: 12 (100) n (%)
  Patients with TEAE: 12 (100) n (%)
  Patients with TEAE leading to death: 0 n (%)
  Patients with TEAE leading to dose adjustment/temporary interruption: 8 (66.7) n (%)
  Patients with TEAE leading to study drug permanent discontinuation: 3 (25.0) n (%)
  Patients with grade ≥3 TEAE: 9 (75.0) n (%)
  Patients with study drug-related TEAE: 11 (91.7) n (%)
  Patients with study drug-related TEAE leading to dose adjustment/temporary interruption: 6 (50.0) n (%)
